System: TBK1
Assay: Immunoblot of TBK1 phosphorylation in HCT116 cells
Type: cell-based, human
Details: HCT116 p53 wild-type and p53−/− cells; 1 μM single agents, combination 0.5 or 1 micromolar each
Source text: Antibodies recognizing phosphorylated/activated ATM (S1981, #ab81292) and DNA-PKcs (S2056, #ab18192) were purchased from Abcam Biotechnology (Cambridge, MA). Antibodies to ATM (#A1106) and DNA-PKcs (#ab1832) were from Sigma and Abcam, respectively. Phospho-KAP1 (S824, #A300-767A) and KAP1 (A700-014) antibodies were from Bethyl Labs (Montgomery, TX). Phospho-TBK1 (#5483), cGAS (#15102), and pSTING (S366, #19781S) antibodies were from Cell Signaling Technology (CST) (Danvers, MA). STING (PA5-23381) antibodies were from ThermoFisher Scientific (Waltham, MA), and actin (#A5316) antibodies were from Sigma. All antibodies were diluted 1:1000 with the exception of actin which was diluted 1:3000 in 1×TBST (1×TBS-10×TBS, (Corning, 46-012-CM), 0.05% Tween-20 (P7949) Sigma and 1% BSA. Secondary antibodies used were (a) Li-Cor method-Goat anti-Rabbit (926-3221) and Goat anti-Mouse (926-68020) Li-Cor (b) ECL method: Anti-rabbit IgG, HRP-linked (#7074S), CST.
Cells were pretreated with Compound 569 at 20, 100, 500, or 1000 nM or DMSO for 30 min and then irradiated with 0 or 10 Gy (XRAD 160, Precision X Ray) as shown in FIG. 1. In FIG. 3, cells were pretreated with Compound 569 at 1 μM, ATMi (AZD0156) at 1 μM, DNA-PKi (peposertib) at 1 μM as single agents or DMSO or with ATMi and DNA-PKi in combination at 0.5 micromolar each or at 1 micromolar each for 30 min and then irradiated with 0 or 10 Gy (XRAD 160, Precision X Ray) as shown in FIG. 1. One hour after IR, cells were lysed in RIPA buffer ([…], pH 8.0, 150 mM NaCl, 0.1% SDS, 0.5% sodium deoxycholate, 1% IGEPAL® CA-630 (Sigma, 18896) for 20 min at 4° C. in the presence of protease and phosphatase inhibitor cocktails (Roche, #04693159001 & #04906837001). Cell lysates were centrifuged at 13,200 g for 10 min at 4° C. and supernatants were analyzed for protein content using BCA assay (Pierce™ BCA Protein Assay Kit, cat #23227, ThermoFisher Waltham, MA 02451) and equal amounts of protein/lane were used for subsequent immunoblot analyses. Proteins were denatured by adding NuPAGE LSD Sample Buffer [4×] […]

COc1ccc([C@@H](O)c2cc(-c3ncnc4cc(N5CCOCC5)ccc34)c(F)cc2Cl)nn1 [peposertib]
phosphorylation of TBK1: induction of phosphorylation of TBK1

CN(C)CCCOc1ccc(-c2ccc3ncc4c(c3c2)n(C2CCOCC2)c(=O)n4C)cn1 [AZD0156]
phosphorylation of TBK1: induction of phosphorylation of TBK1

— patent US20250268873A1, “COMBINATION OF DUAL ATM AND DNA-PK INHIBITORS AND IMMUNOTHERAPEUTIC AGENTS FOR USE IN CANCER THERAPY” (XRAD THERAPEUTICS, INC., priority 2021, published 2025)
